# Laboratory results: patent publication US20130137691A1, “DERIVATIVES OF OXADIAZOLE AND PYRIDAZINE, THEIR PREPARATION AND THEIR APPLICATION IN THERAPEUTICS” (SANOFI, priority 2010, published 2013)
# Assays:
# DGAT-1 enzyme = molecular target: T1, DGAT-1 enzyme (Homo sapiens, UniProt O75907); experiment: DGAT-1 enzyme inhibition, phase partitioning assay (PPA), 96-well; format: biochemical; settings: recombinant DGAT-1 produced in Sf9 insect cells; 1,2-di(cis-9-octadecenoyl)-sn-glycerol and octanoylCoA; read-out: IC50, concentration that inhibits 50% of the activity of DGAT-1
# T1 construct: made in house; host or cells: Sf9 insect cells (baculovirus)
# T1 sequence (O75907 1-488): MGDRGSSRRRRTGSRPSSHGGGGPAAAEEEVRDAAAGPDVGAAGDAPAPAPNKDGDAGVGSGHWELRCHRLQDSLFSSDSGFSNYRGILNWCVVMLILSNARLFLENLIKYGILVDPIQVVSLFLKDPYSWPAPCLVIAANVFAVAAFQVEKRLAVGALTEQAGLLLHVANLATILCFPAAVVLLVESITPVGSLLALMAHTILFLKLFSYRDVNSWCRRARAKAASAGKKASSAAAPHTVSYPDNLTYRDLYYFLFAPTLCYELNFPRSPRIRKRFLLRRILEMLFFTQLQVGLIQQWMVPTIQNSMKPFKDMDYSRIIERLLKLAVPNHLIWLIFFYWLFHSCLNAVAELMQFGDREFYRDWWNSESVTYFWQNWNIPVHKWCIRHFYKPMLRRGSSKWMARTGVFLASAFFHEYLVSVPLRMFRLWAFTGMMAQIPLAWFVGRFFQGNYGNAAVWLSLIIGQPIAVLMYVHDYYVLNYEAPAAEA
# Protocol: The recombinant DGAT-1 protein was produced in Sf9 insect cells transfected with a baculovirus. The reaction was carried out by incubating the enzyme in the presence of 1,2-di(cis-9-octadecenoyl)-sn-glycerol and octanoylCoA. The amount of triacylglycerol formed during the reaction is measured. […] The radioactivity is measured using a MicroBeta counter (Perkin Elmer).
# [1] = tested on: triglyceride biosynthesis in Chang liver cells; experiment: Inhibition of triglyceride biosynthesis in Chang liver cells ([14C] glycerol incorporation); settings: read-out: inhibitory activity on triglyceride biosynthesis, concentration that inhibits 50% of the activity
# Protocol: These trials consisted in measuring the in vitro inhibitory activity of the compounds of the invention on a cell test.
# Chang liver cells at 80% confluence are detached with trypsin-EDTA, 4 ml per 175 cm^2 flask. After centrifugation at 1300×g for 5 minutes, the cell pellet is washed once with PBS and then resuspended in whole medium. The number of cells and their viability are determined on Mallassez cells via the exclusion method with trypan blue.
# 150 000 cells are inoculated per well into a 24-well plate for a minimum of 3 h in DMEM medium 4.5 g/l of glucose supplemented with 10% FCS and with antibiotics, and are maintained at 37° C. in an incubator with CO2 (5%).
# After 3 h, the cells have adhered, the medium is removed and replaced overnight with DMEM medium 4.5 g/l of glucose with 2% of BSA/oleate.
# Next, the cell membranes are destroyed by sonication on a water bath, for 30 minutes. […] The radioactivity is measured using a Flo One C625TR machine (Perkin-Elmer).
# The inhibitory activity on triglyceride biosynthesis is given by the concentration that inhibits 50% of the activity.
IC50 (DGAT-1 enzyme),melting point,Compound,IC50 [1]
890 nM,,"O=C(O)CC1CCC(c2ccc(C(=O)Nc3ccc(Cc4ccccc4)nn3)cc2)CC1 (stereo not drawn) [Compound 3, {4-[4-(6-benzylpyridazin-3-ylcarbamoyl)phenyl]cyclohexyl}acetic acid]",
742 nM,187 °C,"O=C(Nc1nc(Cc2ccccc2)no1)c1ccc(C2CCC(C3CC3C(=O)O)CC2)cc1 (stereo not drawn) [Compound 3b, trans-2-{4-[4-(3-benzyl[1.2.4]oxadiazol-5-ylcarbamoyl)phenyl]cyclohexyl}cyclopropanecarboxylic acid]",
2210 nM,210 °C,"O=C(O)/C=C/[C@H]1CC[C@H](c2ccc(C(=O)Nc3nc(Cc4ccccc4)no3)cc2)CC1 [Compound 3c, (E)-3-{4-[4-(3-benzyl[1.2.4]oxadiazol-5-ylcarbamoyl)phenyl]cyclohexyl}acrylic acid]",
927 nM,193 °C,"O=C(O)CC[C@H]1CC[C@H](c2ccc(C(=O)Nc3nc(Cc4ccccc4)no3)cc2)CC1 [Compound 3d, trans-3-{4-[4-(3-benzyl[1.2.4]oxadiazol-5-ylcarbamoyl)phenyl]cyclohexyl}propionic acid]",
3760 nM,215 to 222 °C,"O=C(Nc1nc(C2(c3ccccc3)CC2)no1)c1ccc(O[C@H]2CC[C@@H](C(=O)O)CC2)cc1 [Compound 6, cis-4-{4-[3-(1-phenylcyclopropyl)[1.2.4]oxadiazol-5-ylcarbamoyl]phenoxy}-cyclohexanecarboxylic acid]",
5700 nM,250 to 255 °C,CC(C)(c1ccccc1)c1noc(NC(=O)c2ccc(O[C@H]3CC[C@@H](C(=O)O)CC3)cc2)n1 [Compound 7],
51 nM,,"O=C(Nc1ccc(NC2CCCC2)nn1)c1ccc(O[C@H]2CC[C@@H](C(=O)O)CC2)cc1 [Compound 9, cis 4-[4-(6-cyclopentylaminopyridazin-3-ylcarbamoyl)phenoxy]-cyclohexanecarboxylic acid]",
81 nM,205 to 210 °C,"O=C(Nc1nc(Cc2ccccc2)no1)c1ccc(O[C@H]2CC[C@@H](C(=O)O)CC2)nc1 [Compound 10, cis-4-[5-(3-benzyl[1.2.4]oxadiazol-5-ylcarbamoyl)pyridin-2-yloxy]-cyclohexanecarboxylic acid]",
5910 nM,259 to 261 °C,"O=C(Nc1ccc(Nc2ccccc2)nn1)c1ccc(O[C@H]2CC[C@@H](C(=O)O)CC2)cc1 [Compound 11, cis-4-[4-(6-phenylaminopyridazin-3-ylcarbamoyl)phenoxy]cyclohexanecarboxylic acid]",
7180 nM,319 to 322 °C,"COc1ccc(-c2ccc(NC(=O)c3ccc(O[C@H]4CC[C@@H](C(=O)O)CC4)cc3)nn2)cc1 [Compound 12, cis-4-{4-[6-(4-methoxyphenyl)pyridazin-3-ylcarbamoyl]phenoxy}-cyclohexanecarboxylic acid]",

Compound,IC50 (DGAT-1 enzyme),melting point,IC50 [1]
"O=C(Nc1nc(COc2ccccc2)no1)c1ccc(O[C@H]2CC[C@@H](C(=O)O)CC2)cc1 [Compound 8, cis-4-[4-(3-phenoxymethyl[1.2.4]oxadiazol-5-ylcarbamoyl)phenoxy]cyclohexanecarboxylic acid]",94 nM,210 to 212 °C,319 nM
